Reference: PubChem BioAssay (NCI)
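The compound was tested at five concentrations on cells cultured in 96-well plates, with a 48-hour exposure period. Here, GI50 denotes the concentration required for 50% inhibition of growth. TGI denotes the concentration required for complete inhibition of growth.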

What was measured:
Experiment in all cases: NCI-60 cell line screen, 48 h
[1] = system: SNB-75 CNS
[2] = system: KM12 colon
[3] = system: MCF7 breast
[4] = system: U251 CNS
[5] = system: DU-145 prostate
[6] = system: SK-MEL-2 melanoma
[7] = system: MDA-MB-435
[8] = system: RPMI-8226 leukemia
[9] = system: COLO 205 colon
[10] = system: CAKI-1 renal

## COc1cc(/C=C/c2cc(/C=C/c3ccc(O)c(OC)c3)n(C(=O)Nc3ccccc3Cl)n2)ccc1O
[1]
  GI50: 259 nM
  TGI: 0.959 µM
[2]
  GI50: 326 nM
  TGI: 1.5 µM
[3]
  GI50: 290 nM
  TGI: 1.4 µM
[4]
  GI50: 0.384 µM
  TGI: 1.51 µM
[5]
  GI50: 472 nM
  TGI: 1.64 µM
[6]
  GI50: 0.397 µM
  TGI: 1.6 µM
[7]
  GI50: 73.8 nM
  TGI: 0.236 µM
[8]
  GI50: 321 nM
  TGI: 1.55 µM
[9]
  GI50: 1490 nM
  TGI: 2.91 µM
[10]
  GI50: 0.222 µM
  TGI: 1.21 µM

## CC(C)[C@@](O)(c1ccc2cc(OC(F)F)c(OC(F)F)cc2c1)c1cn[nH]n1
[1]
  GI50: 15100 nM
  TGI: 40.4 µM
[2]
  GI50: 17500 nM
  TGI: 39.2 µM
[3]
  GI50: 16600 nM
  TGI: 37.7 µM
[4]
  GI50: 17.4 µM
  TGI: 34.7 µM
[5]
  GI50: 16700 nM
  TGI: 39.2 µM
[6]
  GI50: 17.4 µM
  TGI: 34.3 µM
[7]
  GI50: 16400 nM
  TGI: 33.3 µM
[8]
  GI50: 17300 nM
  TGI: 61.4 µM
[9]
  GI50: 17200 nM
  TGI: 35.1 µM
[10]
  GI50: 14.6 µM
  TGI: 38.2 µM

## COC(=O)c1cc2oc(/C=C3/SC(=S)N(N)C3=O)cc2n1Cc1ccccc1
[1]
  GI50: 887 nM
  TGI: 11.3 µM
[2]
  GI50: 6050 nM
  TGI: > 29.7 µM
[3]
  GI50: 1500 nM
  TGI: 6.93 µM
[4]
  GI50: 3.97 µM
  TGI: 14 µM
[5]
  GI50: 3590 nM
  TGI: 15.7 µM
[6]
  GI50: 6.82 µM
  TGI: 18.7 µM
[7]
  GI50: 6650 nM
  TGI: > 41.5 µM
[8]
  GI50: > 27500 nM
  TGI: > 100 µM
[9]
  GI50: 5420 nM
  TGI: 20.7 µM
[10]
  GI50: 2.98 µM
  TGI: 20.6 µM

## CC(C)(C)CC(C)(C)c1ccc(O)c(Cc2ccc(Cl)cc2Cl)c1
[1]
  GI50: 1690 nM
  TGI: 3.08 µM
[2]
  GI50: 1630 nM
  TGI: 3 µM
[3]
  GI50: 1520 nM
  TGI: 2.85 µM
[4]
  GI50: 1.56 µM
  TGI: 2.9 µM
[5]
  GI50: 1690 nM
  TGI: 3.05 µM
[6]
  GI50: 1.44 µM
  TGI: 2.95 µM
[7]
  GI50: 1650 nM
  TGI: 3.01 µM
[8]
  GI50: 1240 nM
  TGI: 3.66 µM
[9]
  GI50: 1770 nM
  TGI: 3.15 µM
[10]
  GI50: 1.31 µM
  TGI: 2.58 µM

## Cn1cc(-c2nc(-c3c[nH]c4ncccc34)cs2)c2ccccc21
[1]
  GI50: 18500 nM
  TGI: > 100 µM
[2]
  GI50: 975 nM
  TGI: 26.7 µM
[3]
  GI50: 401 nM
  TGI: 26.1 µM
[4]
  GI50: 24.8 µM
  TGI: > 100 µM
[5]
  GI50: 62800 nM
  TGI: > 100 µM
[6]
  GI50: 54.7 µM
  TGI: > 100 µM
[7]
  GI50: 3840 nM
  TGI: 30 µM
[8]
  GI50: 4600 nM
  TGI: > 100 µM
[9]
  GI50: 24100 nM
  TGI: > 100 µM
[10]
  GI50: 25.5 µM
  TGI: > 100 µM

## COC(=O)[C@]12CC[C@@H](C)[C@H](C)[C@@H]1C1=CC[C@@H]3[C@@]4(C)C[C@@H](OC(=O)/C=C/c5ccccc5)[C@H](O)[C@@](C)(CO)[C@@H]4[C@H](O)C[C@@]3(C)[C@]1(C)CC2
[1]
  GI50: 2080 nM
  TGI: 12.9 µM
[2]
  GI50: 2050 nM
  TGI: 5.36 µM
[3]
  GI50: 3120 nM
  TGI: 11.5 µM
[4]
  GI50: 1.86 µM
  TGI: 4.18 µM
[5]
  GI50: 2390 nM
  TGI: 5.83 µM
[6]
  GI50: 3.81 µM
  TGI: 15.5 µM
[7]
  GI50: 2440 nM
  TGI: 6.47 µM
[8]
  GI50: 2540 nM
  TGI: 7.86 µM
[9]
  GI50: 1910 nM
  TGI: 4.12 µM
[10]
  GI50: 3.27 µM
  TGI: 11.9 µM

## COC(=O)c1ccc(/C=C(\c2ccc([N+](=O)[O-])o2)S(=O)(=O)c2ccc(NC(C)=O)cc2)o1
[1]
  TGI: 36.2 µM
[2]
  TGI: 27.8 µM
[3]
  TGI: 29.3 µM
[4]
  TGI: 28.8 µM
[5]
  TGI: 21.9 µM
[6]
  TGI: 39.2 µM
[7]
  TGI: 12.8 µM
[8]
  TGI: 3.03 µM
[9]
  TGI: 7.56 µM
[10]
  TGI: 29.4 µM

## Cn1cc(C2=C(c3cn(-c4ccccc4)c4ccccc34)C(=O)NC2=O)c2ccccc21
[1]
  GI50: 5760 nM
  TGI: > 25 µM
[2]
  GI50: 8120 nM
  TGI: > 25 µM
[3]
  GI50: 9300 nM
  TGI: > 25 µM
[4]
  GI50: 11.5 µM
  TGI: > 25 µM
[5]
  GI50: > 25000 nM
  TGI: > 25 µM
[6]
  GI50: 9.14 µM
  TGI: > 25 µM
[7]
  GI50: 6010 nM
  TGI: > 20.5 µM
[8]
  GI50: 12100 nM
  TGI: > 25 µM
[9]
  GI50: 11600 nM
  TGI: > 25 µM
[10]
  GI50: 16.4 µM
  TGI: > 25 µM

## O=C(c1ccccc1Cl)n1oc2ccccc2c1=O
[1]
  TGI: > 100 µM
[2]
  TGI: > 100 µM
[3]
  TGI: > 100 µM
[4]
  TGI: > 100 µM
[5]
  TGI: > 100 µM
[6]
  TGI: > 100 µM
[7]
  TGI: > 100 µM
[8]
  TGI: 68.8 µM
[9]
  TGI: > 100 µM
[10]
  TGI: > 100 µM

## Cc1ccc2cccc(OC(=O)Nc3cccc(C(F)(F)F)c3)c2n1
[1]
  GI50: 2390 nM
  TGI: 11.7 µM
[2]
  GI50: 3190 nM
  TGI: 10.9 µM
[3]
  GI50: 2260 nM
  TGI: 8.05 µM
[4]
  GI50: 3.07 µM
  TGI: 12.2 µM
[5]
  GI50: 3950 nM
  TGI: 82.4 µM
[6]
  GI50: 3.47 µM
  TGI: 12.1 µM
[7]
  GI50: 2910 nM
  TGI: 10.9 µM
[8]
  GI50: 2520 nM
  TGI: 7.21 µM
[9]
  GI50: 3470 nM
  TGI: 10.3 µM
[10]
  GI50: 3.25 µM
  TGI: 11.8 µM

## COc1ccc(C(=NN=C(N)N)c2ccc(OC)cc2)cc1
[1]
  GI50: 1840 nM
  TGI: 11.3 µM
[2]
  GI50: 2310 nM
  TGI: 8.41 µM
[3]
  GI50: 2890 nM
  TGI: 12.4 µM
[4]
  GI50: 3.72 µM
  TGI: 14.1 µM
[5]
  GI50: 2600 nM
  TGI: 10.8 µM
[6]
  GI50: 2.51 µM
  TGI: 12.6 µM
[7]
  GI50: 1780 nM
  TGI: 4.33 µM
[8]
  GI50: 5460 nM
  TGI: 21.8 µM
[9]
  GI50: 1790 nM
  TGI: 3.97 µM
[10]
  GI50: 5.75 µM
  TGI: 21 µM

## Oc1c(Cl)cc(Cl)cc1/C=N/Nc1nnc(N/N=C/c2cc(Cl)cc(Cl)c2O)c2ccccc12
[1]
  GI50: 867 nM
  TGI: > 31.1 µM
[2]
  GI50: 335 nM
  TGI: > 100 µM
[3]
  GI50: 482 nM
  TGI: > 100 µM
[4]
  GI50: 0.345 µM
  TGI: > 52.6 µM
[5]
  GI50: 715 nM
  TGI: > 100 µM
[6]
  GI50: 0.77 µM
  TGI: > 100 µM
[7]
  GI50: 484 nM
  TGI: > 30.9 µM
[8]
  GI50: 405 nM
  TGI: > 100 µM
[9]
  GI50: 433 nM
  TGI: > 100 µM
[10]
  GI50: 0.643 µM
